{"source": "BindingDB's records for doi:10.1021/jm970857f", "about": "(Eli Lilly, 1998)", "note": "Where a name gives a salt, the structure may show the parent alone."}
{"target": "T1, Alpha-1A adrenergic receptor (Rattus norvegicus, UniProt P43140)", "T1 sequence (P43140 whole entry)": "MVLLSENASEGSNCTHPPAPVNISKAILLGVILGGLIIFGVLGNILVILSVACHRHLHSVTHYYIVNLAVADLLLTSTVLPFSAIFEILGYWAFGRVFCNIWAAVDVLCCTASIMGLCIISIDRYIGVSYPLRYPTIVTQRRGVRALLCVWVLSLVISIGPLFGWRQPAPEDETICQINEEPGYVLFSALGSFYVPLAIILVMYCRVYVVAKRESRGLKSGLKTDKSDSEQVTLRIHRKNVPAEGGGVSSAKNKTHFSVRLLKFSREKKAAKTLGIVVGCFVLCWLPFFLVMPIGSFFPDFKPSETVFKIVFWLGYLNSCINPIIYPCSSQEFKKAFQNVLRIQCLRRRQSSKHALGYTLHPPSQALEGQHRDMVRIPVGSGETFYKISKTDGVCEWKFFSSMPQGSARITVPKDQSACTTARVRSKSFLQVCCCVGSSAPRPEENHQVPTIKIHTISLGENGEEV", "units": {"Ki": "µM"}}
{"compound": "CC(C)n1nc(C(=O)NC2CCN(CCNS(C)(=O)=O)CC2)c2ccccc21", "note": "[N-(1-(2-((N-Methylsulfonyl)amino)ethyl)piperidin-4-yl)-1-isopropylindazole-3-carboxamide Maleate]", "Ki": "> 10"}
{"compound": "CC(C)n1nc(C(=O)NC2CCN(Cc3ccccc3)CC2)c2ccccc21", "note": "[N-(1-Benzylpiperidin-4-yl)-1-isopropylindazole-3-carboxamide Hydrochloride]", "Ki": "> 10"}
{"compound": "CC(C)n1nc(C(=O)NCCN2CCC(NC(=O)OCc3ccccc3)CC2)c2ccccc21", "note": "[N-(2-(4-((Benzyloxycarbonyl)amino)-1-piperidinyl)-ethyl)-1-isopropylindazole-3-carboxamide Oxalate]", "Ki": "> 10"}
